# Activity calls are given as the source filed them. No cut-off for these calls is given here.
# What was measured:
# Plasmodium falciparum [1] = assay: Antimalarial activity against chloroquine-sensitive Plasmodium falciparum RKL-2 assessed as dead rings and schizonts at 100 ug/ml after 36 to 40 hr incubation by Giemsa staining; type: functional
# Plasmodium falciparum [2] = assay: Antimalarial activity against chloroquine-sensitive Plasmodium falciparum 3D7 assessed as inhibition of schizont maturation at 50 ug/ml after 36 to 40 hr incubation by Giemsa staining; type: functional
# Plasmodium falciparum [3] = assay: Antimalarial activity against chloroquine-sensitive Plasmodium falciparum 3D7 assessed as inhibition of schizont maturation at 0.25 ug/ml after 36 to 40 hr incubation by Giemsa staining; type: functional
# Plasmodium falciparum [4] = assay: Antimalarial activity against chloroquine-sensitive Plasmodium falciparum 3D7 assessed as inhibition of schizont maturation at 1 ug/ml after 36 to 40 hr incubation by Giemsa staining; type: functional
# Plasmodium falciparum [5] = assay: Antimalarial activity against chloroquine-sensitive Plasmodium falciparum 3D7 assessed as inhibition of schizont maturation at 100 ug/ml after 36 to 40 hr incubation by Giemsa staining; type: functional
# Plasmodium falciparum [6] = assay: Antimalarial activity against chloroquine-sensitive Plasmodium falciparum 3D7 assessed as inhibition of schizont maturation at 10 ug/ml after 36 to 40 hr incubation by Giemsa staining; type: functional
# Plasmodium yoelii [7] = assay: Antimalarial activity against chloroquine-resistant Plasmodium yoelii infected Swiss mouse assessed as mouse showing nil parasitemia at 500 mg/kg, po qd for 4 days measured on day 7; type: functional, organism-based; set-up: dose 500 mg/kg
# Plasmodium falciparum [8] = assay: Antimalarial activity against chloroquine-sensitive Plasmodium falciparum 3D7 assessed as inhibition of schizont maturation at 2 ug/ml after 36 to 40 hr incubation by Giemsa staining; type: functional
# Plasmodium falciparum [9] = assay: Antimalarial activity against chloroquine-sensitive Plasmodium falciparum 3D7 assessed as inhibition of schizont maturation at 0.5 ug/ml after 36 to 40 hr incubation by Giemsa staining; type: functional
# Plasmodium falciparum [10] = assay: Antimalarial activity against chloroquine-sensitive Plasmodium falciparum 3D7 assessed as inhibition of schizont maturation at 0.125 ug/ml after 36 to 40 hr incubation by Giemsa staining; type: functional
# Plasmodium yoelii [11] = assay: Antimalarial activity against chloroquine-resistant Plasmodium yoelii infected Swiss mouse assessed as mouse showing nil parasitemia at 500 mg/kg, po qd for 4 days measured on day 4; type: functional, organism-based; set-up: dose 500 mg/kg
# Plasmodium falciparum [12] = assay: Antimalarial activity against chloroquine-sensitive Plasmodium falciparum 3D7 assessed as inhibition of schizont maturation at 0.063 ug/ml after 36 to 40 hr incubation by Giemsa staining; type: functional
# Plasmodium falciparum [13] = assay: Antimalarial activity against chloroquine-sensitive Plasmodium falciparum 3D7 assessed as inhibition of schizont maturation at 0.031 ug/ml after 36 to 40 hr incubation by Giemsa staining; type: functional
# Plasmodium yoelii [14] = assay: Antimalarial activity against chloroquine-resistant Plasmodium yoelii infected Swiss mouse assessed as mouse showing nil parasitemia at 500 mg/kg, po qd for 4 days measured on day 10; type: functional, organism-based; set-up: dose 500 mg/kg
# Plasmodium yoelii [15] = assay: Antimalarial activity against chloroquine-resistant Plasmodium yoelii infected Swiss mouse assessed as suppression parasitemia at 500 mg/kg, po qd for 4 days; type: functional
# Plasmodium falciparum [16] = assay: Antimalarial activity against chloroquine-sensitive Plasmodium falciparum 3D7 assessed as inhibition of schizont maturation at 0.0625 ug/ml after 36 to 40 hr incubation by Giemsa staining; type: functional
# Plasmodium falciparum [17] = assay: Antimalarial activity against chloroquine-sensitive Plasmodium falciparum RKL-2 assessed as dead rings and schizonts at 0.4 ug/ml after 36 to 40 hr incubation by Giemsa staining; type: functional
smiles,measurement,setting,value
CC(C)N(Cc1cc(Nc2ccnc3cc(Cl)ccc23)ccc1O)C(C)C,Activity,Plasmodium falciparum [1],3%
Oc1ccc(Nc2ccnc3cc(Cl)ccc23)cc1CN1CCOCC1,inhibition at 50 µg/mL,Plasmodium falciparum [2],100%
same,inhibition at 0.25 µg/mL,Plasmodium falciparum [3],100%
same,inhibition at 1 µg/mL,Plasmodium falciparum [4],100%
same,inhibition at 100 µg/mL,Plasmodium falciparum [5],100%
same,inhibition at 10 µg/mL,Plasmodium falciparum [6],100%
same,Activity,Plasmodium yoelii [7],Active
same,inhibition at 2 µg/mL,Plasmodium falciparum [8],100%
same,inhibition at 0.5 µg/mL,Plasmodium falciparum [9],100%
same,inhibition at 0.125 µg/mL,Plasmodium falciparum [10],100%
same,Activity,Plasmodium yoelii [11],Active
same,inhibition at 0.063 µg/mL,Plasmodium falciparum [12],100%
same,inhibition at 0.031 µg/mL,Plasmodium falciparum [13],73.3%
same,Activity,Plasmodium yoelii [14],Active
same,Activity,Plasmodium yoelii [15],100%
CCCCNCc1cc(Nc2ccnc3cc(Cl)ccc23)ccc1O,inhibition at 50 µg/mL,Plasmodium falciparum [2],100%
same,inhibition at 1 µg/mL,Plasmodium falciparum [4],71.1%
same,inhibition at 100 µg/mL,Plasmodium falciparum [5],100%
same,inhibition at 10 µg/mL,Plasmodium falciparum [6],100%
same,inhibition at 2 µg/mL,Plasmodium falciparum [8],82.2%
CC(C)NCc1cc(Nc2ccnc3cc(Cl)ccc23)ccc1O,Activity,Plasmodium falciparum [1],6.5%
CCN(CC)CCCC(C)Nc1ccnc2cc(Cl)ccc12 (stereo not given) [CHLOROQUINE],inhibition at 0.0625 µg/mL,Plasmodium falciparum [16],88.4%
same,inhibition at 0.25 µg/mL,Plasmodium falciparum [3],100%
same,inhibition at 0.5 µg/mL,Plasmodium falciparum [9],100%
same,inhibition at 0.125 µg/mL,Plasmodium falciparum [10],97.1%
same,Activity,Plasmodium falciparum [17],54%
Oc1ccc(Nc2ccnc3cc(Cl)ccc23)cc1CN(c1ccccc1)c1ccccc1,inhibition at 50 µg/mL,Plasmodium falciparum [2],0.05%
same,inhibition at 100 µg/mL,Plasmodium falciparum [5],38.9%
CCCCN(CCCC)Cc1cc(Nc2ccnc3cc(Cl)ccc23)ccc1O,Activity,Plasmodium falciparum [1],5%
CCCNCc1cc(Nc2ccnc3cc(Cl)ccc23)ccc1O,Activity,Plasmodium falciparum [1],6.5%

# — ChEMBL document CHEMBL3045700, “Synthesis and in vitro and in vivo antimalarial activity of novel 4-anilinoquinoline Mannich base derivatives” (2011)
